Experimental data published in patent publication US20230293698A1, “METAL-ORGANIC FRAMEWORKS DELIVER SMALL MOLECULES AND BIOMACROMOLECULES FOR CANCER IMMUNOTHERAPY” (The University of Chicago, priority 2020, published 2023).

Tests used:
MC38 tumor = settings: intratumoral injection, Cy5 label
Description: The images were processed and analyzed by software sold under the tradename LIVING IMAGE® 4.7.2 (PerkinElmer, Waltham, Massachusetts, United States of America).

[1] = Toxicity after intravenous injection; format: in vivo; settings: C57BL/6 mice, biweekly, total of 4 doses

| Compound | fluorescence signal retention in tumor (MC38 tumor) | toxicity (bodyweight gains) [1] |
| --- | --- | --- |
| Nc1nc2c(ncn2[C@@H]2O[C@@H]3COP(=O)(O)O[C@H]4[C@@H](O)[C@H](n5cnc6c(N)ncnc65)O[C@@H]4COP(=O)(O)O[C@@H]2[C@@H]3O)c(=O)[nH]1 [cGAMP, cyclic guanosine monophosphate-adenosine monophosphate] | diffused and disappeared quickly | – |
| Ir(DBB)[dF(CF3)ppy]2^+ [DBB^F-Ir] | – | did not cause toxicity |
